These results are taken from patent US20240383867A1, “CRYSTALLINE FORMS OF ISOXAZOLINE COMPOUND” (ELANCO US, INC., priority 2021, published 2024).

Data set [1] is described as follows: hygroscopicity testing via dynamic vapor sorption (DVS). The format is physicochemical. To be noted: for hygroscopicity classification: DVS, class based on mass gain at 85% RH; for absorption of water (DVS): storage at 95% relative humidity for five hours. As for the experimental part:
Sorption isotherms were obtained using an SPS11-100n Sorptions Prufsystem from ProUmid (formerly Projekt Messtechnik). About 5 mg to about 20 mg of sample were placed into an aluminum sample plan on top of a microbalance and allowed to equilibrate at 50% relative humidity (RH) before starting the following applied measurement program. Humidity change rates of 5% per hour were used. The applied measurement program can be described as follows: • (1) 2 h at 50% RH • (2) 50→0% RH (5%/h); 5 h at 0% RH • (3) 0→95% RH (5%/h); 5 h at 95% RH • (4) 95→0% RH (5%/h); 5 h at 0% RH • (5) 0→95% RH (5%/h); 5 h at 95% RH • (6) 95→50% RH (5%/h); 2 h at 50% RH. The sample was recovered after completion of the isotherm and re-analyzed by XRPD. Hygroscopicity was classified based on the mass gain at 85% relative humidity (RH) relative to the initial mass as follows: deliquescent (sufficient water adsorbed to form a liquid), very hygroscopic (mass increase […]), hygroscopic (mass increase <15% but ≥2%), slightly hygroscopic (mass increase <2% but ≥0.2%), or non-hygroscopic (mass increase <0.2%).

The format of data set [2] is physicochemical. As for the experimental part: 53 mg of Sample 42 (Form A) and 47 mg of Sample (Form C) were suspended in 1 mL of an ethyl acetate/heptane (1:3) mixture at room temperature. After two hours of stirring at room temperature, one additional mL of the solvent mixture was added to the suspension. After another 1 hour of stirring, the suspension was seeded with Sample 42 and Sample 55 (about 10-20 mg). Further stirring was conducted at room temperature for one week. Then the suspension was filtered using a centrifugal unit filter (PTFE, 0.2 μm, 5000 rpm, room temperature).
The remaining substance from Sample 56 (approx. 42 mg) was further equilibrated in 0.5 mL of an ethyl acetate/heptane (1:3) mixture at room temperature After one month of stirring, the suspension was filtered using a centrifugal unit filter (PTFE, 0.2 μm, 5000 rpm, room temperature). […] The resulting Crystalline Form C of Example 27a is herein referred to as Sample 56A.
71 mg of Sample 42 (Form A) and 73 mg of Sample 55 (Form C) were suspended in 1 mL of an ethyl acetate/heptane (1:3) mixture at 60° C. After two hours of stirring at 60° C., one additional mL of the solvent mixture was added to the suspension. After another 1 hour of stirring, the suspension was seeded with Samples 42 and 55 (about 10-20 mg). Further stirring was conducted at 60° C. After four days of stirring, a solution with material on the glass side was obtained. Approx. […]

The nature of data set [3]: solubility in common organic solvents. The format is physicochemical.
Data set [4] relates to fleas (Ctenocephalides felis). To be noted: in vitro ingesting activity; cited from earlier work.
For data set [5] the following is noted: in vivo; cited from earlier work.

Each structure is given as a SMILES string. A value given as a limit tells only on which side of the number the result lay.

The half-life is the time in which the quantity being followed falls by half.

Turning to `Cc1cc(C2=NO[C@@](c3cc(C(F)(F)F)cc(Cl)c3F)(C(F)(F)F)C2)ccc1C(=O)NCC(=O)NCC(F)(F)F` [Crystalline Form A, 2-methyl-N-[2-oxo-2-(2,2,2-trifluoroethylamino)ethyl]-4-[(5S)-5-[3-chloro-2-fluoro-5-(trifluoromethyl)phenyl]-5-(trifluoromethyl)-4H-isoxazol-3-yl]benzamide], in data set [1], the hygroscopicity classification result is “slightly hygroscopic (slightly hygroscopic (mass increase <2% but ≥0.2%))” and the “absorption of water (DVS)” value is ~0.5%. The “relative stability of Form A versus Form C” value in data set [2] is recorded as “stable form at room temperature”.

As to `Cc1cc(C2=NO[C@@](c3cc(C(F)(F)F)cc(Cl)c3F)(C(F)(F)F)C2)ccc1C(=O)NCC(=O)NCC(F)(F)F` [Crystalline Form B, 2-methyl-N-[2-oxo-2-(2,2,2-trifluoroethylamino)ethyl]-4-[(5S)-5-[3-chloro-2-fluoro-5-(trifluoromethyl)phenyl]-5-(trifluoromethyl)-4H-isoxazol-3-yl]benzamide], the “absorption of water (DVS)” value in data set [1] is on record as “up to 1.2%”.

Take `Cc1cc(C2=NO[C@@](c3cc(C(F)(F)F)cc(Cl)c3F)(C(F)(F)F)C2)ccc1C(=O)NCC(=O)NCC(F)(F)F` [Form C, 2-methyl-N-[2-oxo-2-(2,2,2-trifluoroethylamino)ethyl]-4-[(5S)-5-[3-chloro-2-fluoro-5-(trifluoromethyl)phenyl]-5-(trifluoromethyl)-4H-isoxazol-3-yl]benzamide]: the “relative stability of Form A versus Form C” value in data set [2] is “stable form at 30° and above”.

As for `Cc1cc(C2=NO[C@@](c3cc(C(F)(F)F)cc(Cl)c3F)(C(F)(F)F)C2)ccc1C(=O)NCC(=O)NCC(F)(F)F` [amorphous form of the compound of Formula 1] [2-methyl-N-[2-oxo-2-(2,2,2-trifluoroethylamino)ethyl]-4-[(5S)-5-[3-chloro-2-fluoro-5-(trifluoromethyl)phenyl]-5-(trifluoromethyl)-4H-isoxazol-3-yl]benzamide], in data set [1], the hygroscopicity classification entry was “slightly hygroscopic (slightly hygroscopic (mass increase <2% but ≥0.2%))” and the “absorption of water (DVS)” value was ~1.5%. In data set [1] (XRPD after DVS), the “solid form after DVS measurement (XRPD)” value is given as “No crystallization occurred”. In addition, the “solubility in common organic solvents” value in data set [3] is reported as “high solubility”.

`Cc1cc(C2=NO[C@@](c3cc(C(F)(F)F)cc(Cl)c3F)(C(F)(F)F)C2)ccc1C(=O)NCC(=O)NCC(F)(F)F` [compound of Formula 1, 2-methyl-N-[2-oxo-2-(2,2,2-trifluoroethylamino)ethyl]-4-[(5S)-5-[3-chloro-2-fluoro-5-(trifluoromethyl)phenyl]-5-(trifluoromethyl)-4H-isoxazol-3-yl]benzamide]: the EC50 in data set [4] was < 1 ppm. In addition, the half-life in data set [5] is recorded as 50 days.
